Results on three molecules are retold here after US20160289702A1, “Biosynthetic Mint” (The University of Manchester, priority 2015, published 2016).

A value given as a limit tells only on which side of the number the result lay.

The target in assay [1] is T1, NtDBR-His6 (Nicotiana tabacum, UniProt Q9SLN8).
T1 construct: made in house; host or cells: E. coli BL21(DE3)pLysS
Briefly: Steady-state kinetics, ene-reductase activity by NADPH oxidation monitoring. The format is biochemical. To be noted: NADPH oxidation at 340 nm, 25° C., monoterpenoid 1 mM, 50 mM Tris pH 7.0. How it is done: (§1) The concentration of nicotinamide coenzymes (Melford) was determined by the extinction coefficient method (ε340=[…]). Steady-state kinetic analyses were performed on a Cary UV-50 Bio UV/Vis scanning spectrophotometer using a quartz cuvette (1 mL; HelIma) with a 1 cm path length. Standard reactions (1 mL) were performed in buffer (50 mM Tris pH 7.0) containing NADPH (50-100 μM for MMR/MNMR and NtDBR, respectively), monoterpenoid (1 mM) and enzyme (30 nM to 2 μM). Reactions were followed by continuously monitoring NADPH oxidation at 340 nm for 1 min at 25° C. The standard monoterpenoid substrates used were pulegone for NtDBR (alkene reduction) and menthone/isomenthone for both MMR and MNMR (ketoreduction). Ketoreductase reactions were performed in an alternative buffer (12.5 mM tri-sodium citrate, 12.5 mM KH2PO4, 12.5 mM K2HPO4and 12.5 mM CHES) containing dithiothreitol (1 mM; DTT). All steady state reactions were performed in at least duplicate.
The cloning strategies enable the rapid generation and manipulation of multi-gene expression constructs from individual ‘components’, including the presence of repeated sequences of relatively high GC content. Initially, the three ‘mint’ pathway recombinant enzymes (NtDBR, MMR and MNMR) were purified, and preliminary biocatalytic ability of each was assessed to test their functionality when produced in a bacterial system. […]

The subject of assay [2] is MMR-His6. Briefly: Steady-state kinetics, ketoreductase activity by NADPH oxidation monitoring. The format is biochemical, Mentha piperita. Particulars: NADPH oxidation at 340 nm, 25° C., monoterpenoid 1 mM. How it is done: as §1
(§2) The cloning strategies enable the rapid generation and manipulation of multi-gene expression constructs from individual ‘components’, including the presence of repeated sequences of relatively high GC content. Initially, the three ‘mint’ pathway recombinant enzymes (NtDBR, MMR and MNMR) were purified, and preliminary biocatalytic ability of each was assessed to test their functionality when produced in a bacterial system. The three genes encoding these plant enzymes were first codon-optimised for E. coli and cloned into pET21b to generate C-His6-tagged recombinant enzymes. After production and purification, each enzyme was tested for activity under steady state conditions, via indirect NADPH oxidation monitoring.

In assay [3] the test system is His6-MNMR-His6. The assay is described as above. The format is biochemical, Mentha piperita. Particulars: NADPH oxidation at 340 nm, 25° C., monoterpenoid 1 mM. How it is done: as §1, §2
In assay [4] the test system is MMR. Particulars: Davis et al. 2005; cited from earlier work.

T1 sequence (Q9SLN8 whole entry): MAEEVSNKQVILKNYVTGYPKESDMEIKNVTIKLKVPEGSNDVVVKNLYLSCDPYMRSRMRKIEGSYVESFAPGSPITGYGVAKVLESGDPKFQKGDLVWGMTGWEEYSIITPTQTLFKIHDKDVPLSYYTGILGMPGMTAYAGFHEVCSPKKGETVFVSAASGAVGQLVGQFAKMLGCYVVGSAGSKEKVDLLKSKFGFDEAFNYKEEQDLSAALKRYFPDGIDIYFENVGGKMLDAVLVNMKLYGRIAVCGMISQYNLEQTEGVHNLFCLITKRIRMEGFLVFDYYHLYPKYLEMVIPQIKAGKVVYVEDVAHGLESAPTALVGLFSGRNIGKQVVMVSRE

In turn, `CC(C)=C1CC[C@@H](C)CC1=O` [(5R)-pulegone] gave an ene-reductase activity in assay [1] below 0.1 s⁻¹.

Regarding `CC(C)[C@H]1CC[C@@H](C)CC1=O` [(2R,5R)-isomenthone], the results for the Ketoreductase activity in assay [2] and in assay [3] were 2.00 s⁻¹ and 0.20 s⁻¹, respectively.

`CC(C)[C@@H]1CC[C@@H](C)CC1=O` [(2S,5R)-menthone, (2S,5R)-trans-2-Isopropyl-5-methylcyclohexanone]: the values for the Ketoreductase activity in assay [2] and in assay [3] were 1.63 s⁻¹ and 0.96 s⁻¹, respectively. The “specificity for menthone over isomenthone” value in assay [4] was 10 fold.
